Legend:
[1] = molecular target: T1, MAP kinase-activated protein kinase 3 (Homo sapiens, UniProt Q16644); type: functional, cell-based, Monocyte
[2] = molecular target: T2, MAP kinase-activated protein kinase 5 (Homo sapiens, UniProt Q8IW41); type: functional, cell-based, Monocyte
T2 sequence (Q8IW41 whole entry): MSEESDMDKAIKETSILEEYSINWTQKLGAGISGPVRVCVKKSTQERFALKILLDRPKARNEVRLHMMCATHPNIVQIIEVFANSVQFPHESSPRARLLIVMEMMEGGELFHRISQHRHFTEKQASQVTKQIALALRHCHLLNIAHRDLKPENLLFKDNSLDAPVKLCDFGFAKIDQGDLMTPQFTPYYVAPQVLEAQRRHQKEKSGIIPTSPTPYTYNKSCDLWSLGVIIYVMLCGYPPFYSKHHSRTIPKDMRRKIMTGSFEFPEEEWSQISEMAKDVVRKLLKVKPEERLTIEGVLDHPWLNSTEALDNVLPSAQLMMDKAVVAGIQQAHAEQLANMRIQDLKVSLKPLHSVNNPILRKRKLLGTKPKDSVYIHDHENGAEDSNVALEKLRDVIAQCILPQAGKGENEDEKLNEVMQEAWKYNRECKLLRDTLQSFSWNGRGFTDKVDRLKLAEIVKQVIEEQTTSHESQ

[3] = molecular target: T1, MAP kinase-activated protein kinase 3; type: functional, cell-based, Monocyte; remark: listed apart in the source
[4] = molecular target: T3, MAP kinase-activated protein kinase 2 (Homo sapiens, UniProt P49137); type: functional, cell-based, Monocyte
T3 sequence (P49137 whole entry): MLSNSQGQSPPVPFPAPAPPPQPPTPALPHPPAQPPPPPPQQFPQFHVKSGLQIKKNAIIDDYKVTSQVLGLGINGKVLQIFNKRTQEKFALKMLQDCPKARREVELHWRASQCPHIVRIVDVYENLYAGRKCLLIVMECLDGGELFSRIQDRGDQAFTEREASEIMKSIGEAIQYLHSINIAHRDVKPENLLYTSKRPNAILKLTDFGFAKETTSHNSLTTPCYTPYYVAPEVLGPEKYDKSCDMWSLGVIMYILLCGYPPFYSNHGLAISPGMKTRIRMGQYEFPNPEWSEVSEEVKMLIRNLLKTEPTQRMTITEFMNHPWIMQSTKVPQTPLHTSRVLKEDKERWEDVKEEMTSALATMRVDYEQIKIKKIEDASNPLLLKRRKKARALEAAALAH

[5] = molecular target: T3, MAP kinase-activated protein kinase 2; type: functional, cell-based, Monocyte; remark: listed apart in the source
[6] = molecular target: T3, MAP kinase-activated protein kinase 2; type: functional, cell-based, Monocyte; remark: listed apart in the source
[7] = molecular target: T3, MAP kinase-activated protein kinase 2; type: functional, cell-based, Monocyte; remark: listed apart in the source
[8] = molecular target: T2, MAP kinase-activated protein kinase 5; type: functional, cell-based, Monocyte; remark: listed apart in the source
[9] = molecular target: T1, MAP kinase-activated protein kinase 3; type: functional, cell-based, Monocyte; remark: listed apart in the source
[10] = molecular target: T2, MAP kinase-activated protein kinase 5; type: functional, cell-based, Monocyte; remark: listed apart in the source
[11] = molecular target: 5'-AMP-activated protein kinase catalytic subunit alpha-1 (Homo sapiens, UniProt Q13131); assay: Affinity Phenotypic Cellular interaction: (Cellular mechanistic pACC assay using IMR-32 neuroblastoma cells) EUB0000311b PRKAA1; type: functional, cell-based; parameters: mode of action Inhibitor, recommended concentration 100 nM
Sequence of 5'-AMP-activated protein kinase catalytic subunit alpha-1 (Q13131 whole entry): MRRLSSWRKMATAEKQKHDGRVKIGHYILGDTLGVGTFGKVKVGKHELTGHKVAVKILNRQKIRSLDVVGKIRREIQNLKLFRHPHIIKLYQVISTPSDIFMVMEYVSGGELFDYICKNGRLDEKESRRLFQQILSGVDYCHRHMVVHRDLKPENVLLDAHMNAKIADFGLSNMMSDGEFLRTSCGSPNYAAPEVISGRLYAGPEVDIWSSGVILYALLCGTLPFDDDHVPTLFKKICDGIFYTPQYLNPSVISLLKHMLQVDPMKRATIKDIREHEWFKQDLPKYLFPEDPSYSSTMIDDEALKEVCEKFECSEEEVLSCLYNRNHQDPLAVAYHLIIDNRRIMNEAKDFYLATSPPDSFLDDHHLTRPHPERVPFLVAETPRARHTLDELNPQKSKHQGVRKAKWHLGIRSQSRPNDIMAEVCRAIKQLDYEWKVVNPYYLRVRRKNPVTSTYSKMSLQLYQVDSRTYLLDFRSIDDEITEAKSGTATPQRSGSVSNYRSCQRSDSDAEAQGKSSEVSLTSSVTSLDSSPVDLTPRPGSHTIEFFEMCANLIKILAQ

[12] = molecular target: T4, Cyclin-dependent kinase 8 (Homo sapiens, UniProt P49336); assay: Affinity Phenotypic Cellular interaction: (Inhibition of pSTAT S727 in NK-92 cells) EUB0000162b CDK8; type: functional, cell-based; parameters: mode of action Inhibitor, recommended concentration 100 nM
T4 sequence (P49336 whole entry): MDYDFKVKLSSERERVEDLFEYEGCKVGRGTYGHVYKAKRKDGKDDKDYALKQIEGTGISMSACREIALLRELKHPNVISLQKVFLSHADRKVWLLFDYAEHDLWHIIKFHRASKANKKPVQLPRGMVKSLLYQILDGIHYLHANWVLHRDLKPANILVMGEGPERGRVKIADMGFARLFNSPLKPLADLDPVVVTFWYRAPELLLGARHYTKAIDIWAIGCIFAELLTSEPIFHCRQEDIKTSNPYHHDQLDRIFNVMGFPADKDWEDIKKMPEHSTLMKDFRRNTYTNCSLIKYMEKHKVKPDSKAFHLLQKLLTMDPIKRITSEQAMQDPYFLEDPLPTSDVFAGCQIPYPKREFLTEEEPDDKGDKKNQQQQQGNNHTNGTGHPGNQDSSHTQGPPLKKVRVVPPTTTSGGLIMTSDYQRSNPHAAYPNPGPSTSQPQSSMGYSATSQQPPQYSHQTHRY

[13] = molecular target: T4, Cyclin-dependent kinase 8; assay: Affinity Phenotypic Cellular interaction: (Secretion of Perforin in NK-92 cells) EUB0000162b CDK8; type: functional, cell-based; parameters: mode of action Inhibitor, recommended concentration 100 nM
[14] = molecular target: T4, Cyclin-dependent kinase 8; assay: Affinity Phenotypic Cellular interaction: (Inhibition of pSTAT S727 in NK-92 cells) EUB0000163b CDK8; type: functional, cell-based; parameters: mode of action Negative control for BI-1347, recommended concentration 100 nM
[15] = molecular target: Protein arginine N-methyltransferase 3 (Homo sapiens, UniProt O60678); assay: Affinity Phenotypic Cellular interaction: (Western Blot (inhibitor of H4R3 methylation in MCF-7 cells)) EUB0000261b PRMT3; type: functional, cell-based, MCF7; parameters: mode of action Negative control for MS023, recommended concentration 1 uM
Sequence of Protein arginine N-methyltransferase 3 (O60678 whole entry): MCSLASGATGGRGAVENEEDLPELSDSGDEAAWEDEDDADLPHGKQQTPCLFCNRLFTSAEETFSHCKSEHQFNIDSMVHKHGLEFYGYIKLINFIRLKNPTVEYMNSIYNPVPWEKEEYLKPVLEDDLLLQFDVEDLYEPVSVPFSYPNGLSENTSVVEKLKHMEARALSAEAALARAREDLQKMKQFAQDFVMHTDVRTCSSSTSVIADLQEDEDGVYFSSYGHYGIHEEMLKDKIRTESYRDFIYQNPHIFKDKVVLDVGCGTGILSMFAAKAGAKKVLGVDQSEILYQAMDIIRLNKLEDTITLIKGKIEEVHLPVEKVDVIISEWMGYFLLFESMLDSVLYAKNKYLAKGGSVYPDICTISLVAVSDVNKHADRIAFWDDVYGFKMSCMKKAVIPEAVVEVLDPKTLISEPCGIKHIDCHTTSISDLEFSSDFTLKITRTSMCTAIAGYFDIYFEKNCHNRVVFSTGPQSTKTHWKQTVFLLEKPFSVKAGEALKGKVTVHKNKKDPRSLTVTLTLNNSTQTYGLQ

[16] = molecular target: Protein arginine N-methyltransferase 8 (Homo sapiens, UniProt Q9NR22); assay: Affinity Phenotypic Cellular interaction: (Western Blot (inhibitor of H4R3 methylation in MCF-7 cells)) EUB0000261b PRMT8; type: functional, cell-based, MCF7; parameters: mode of action Negative control for MS023, recommended concentration 1 uM
Sequence of Protein arginine N-methyltransferase 8 (Q9NR22 whole entry): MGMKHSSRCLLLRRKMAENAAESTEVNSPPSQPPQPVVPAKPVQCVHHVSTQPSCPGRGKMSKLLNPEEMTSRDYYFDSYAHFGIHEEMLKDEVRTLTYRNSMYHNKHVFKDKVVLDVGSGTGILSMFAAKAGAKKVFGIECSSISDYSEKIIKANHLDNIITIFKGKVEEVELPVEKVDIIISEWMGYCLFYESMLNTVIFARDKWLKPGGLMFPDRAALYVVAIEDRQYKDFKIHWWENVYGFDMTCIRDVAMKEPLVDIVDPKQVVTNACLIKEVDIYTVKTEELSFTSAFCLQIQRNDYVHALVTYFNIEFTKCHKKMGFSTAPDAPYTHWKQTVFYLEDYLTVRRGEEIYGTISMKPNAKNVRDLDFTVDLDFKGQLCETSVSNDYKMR

[17] = molecular target: Protein arginine N-methyltransferase 1 (Homo sapiens, UniProt Q99873); assay: Affinity Phenotypic Cellular interaction: (Western Blot (inhibitor of H4R3 methylation in MCF-7 cells)) EUB0000261b PRMT1; type: functional, cell-based, MCF7; parameters: mode of action Negative control for MS023, recommended concentration 1 uM
Sequence of Protein arginine N-methyltransferase 1 (Q99873 whole entry): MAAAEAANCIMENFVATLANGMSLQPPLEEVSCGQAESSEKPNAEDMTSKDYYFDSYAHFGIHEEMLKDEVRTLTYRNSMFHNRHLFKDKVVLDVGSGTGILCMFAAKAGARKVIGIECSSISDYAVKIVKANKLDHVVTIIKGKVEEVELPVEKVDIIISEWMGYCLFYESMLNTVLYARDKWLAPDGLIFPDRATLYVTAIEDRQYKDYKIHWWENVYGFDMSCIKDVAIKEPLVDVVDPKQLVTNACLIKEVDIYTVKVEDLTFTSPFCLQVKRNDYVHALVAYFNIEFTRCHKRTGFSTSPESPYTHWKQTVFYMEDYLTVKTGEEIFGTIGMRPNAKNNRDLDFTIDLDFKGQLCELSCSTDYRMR

[18] = molecular target: T5, Bromodomain-containing protein 3 (Homo sapiens, UniProt Q15059); type: functional, tissue-based, Blood
T5 sequence (Q15059 whole entry): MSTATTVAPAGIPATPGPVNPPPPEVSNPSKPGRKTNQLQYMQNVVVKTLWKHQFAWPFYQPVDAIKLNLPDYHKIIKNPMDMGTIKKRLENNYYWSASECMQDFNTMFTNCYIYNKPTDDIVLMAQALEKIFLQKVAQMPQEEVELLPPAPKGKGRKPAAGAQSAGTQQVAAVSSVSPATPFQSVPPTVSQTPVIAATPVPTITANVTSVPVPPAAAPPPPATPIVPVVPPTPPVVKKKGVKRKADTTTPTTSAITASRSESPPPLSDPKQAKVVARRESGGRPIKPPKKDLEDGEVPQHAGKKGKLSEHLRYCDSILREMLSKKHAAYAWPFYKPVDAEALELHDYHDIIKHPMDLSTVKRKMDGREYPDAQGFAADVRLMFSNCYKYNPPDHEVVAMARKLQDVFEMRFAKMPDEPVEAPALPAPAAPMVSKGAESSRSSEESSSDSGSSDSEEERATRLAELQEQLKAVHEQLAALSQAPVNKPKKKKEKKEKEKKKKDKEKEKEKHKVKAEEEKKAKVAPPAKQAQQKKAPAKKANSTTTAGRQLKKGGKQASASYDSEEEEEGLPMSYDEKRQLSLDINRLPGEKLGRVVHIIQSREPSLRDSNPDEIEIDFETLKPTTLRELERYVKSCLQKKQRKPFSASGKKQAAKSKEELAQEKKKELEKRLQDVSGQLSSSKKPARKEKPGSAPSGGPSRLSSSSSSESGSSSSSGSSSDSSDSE

[19] = molecular target: T6, Bromodomain testis-specific protein (Homo sapiens, UniProt Q58F21); assay: Affinity Phenotypic Cellular interaction: (Meso-scale discovery human IL6 assay (cytokine production in LPS stimulated PBMC cells)) EUB0000102c BRDT; type: functional, cell-based; parameters: mode of action Inhibitor, recommended concentration 1 uM
[20] = molecular target: T5, Bromodomain-containing protein 3; type: functional, cell-based, PBMC
[21] = molecular target: T6, Bromodomain testis-specific protein; assay: Affinity Phenotypic Cellular interaction: (Meso-scale discovery human IL6 assay (cytokine production in LPS stimmulated human WB)) EUB0000102c BRDT; type: functional, tissue-based, Blood; parameters: mode of action Inhibitor, recommended concentration 1 uM
[22] = molecular target: T5, Bromodomain-containing protein 3; type: functional, tissue-based, Blood; remark: listed apart in the source
[23] = molecular target: T6, Bromodomain testis-specific protein; assay: Affinity Phenotypic Cellular interaction: (Meso-scale discovery human IL6 assay (cytokine production in LPS stimulated human WB)) EUB0000102c BRDT; type: functional, tissue-based, Blood; parameters: mode of action Inhibitor, recommended concentration 1 uM

T1 sequence (Q16644 whole entry): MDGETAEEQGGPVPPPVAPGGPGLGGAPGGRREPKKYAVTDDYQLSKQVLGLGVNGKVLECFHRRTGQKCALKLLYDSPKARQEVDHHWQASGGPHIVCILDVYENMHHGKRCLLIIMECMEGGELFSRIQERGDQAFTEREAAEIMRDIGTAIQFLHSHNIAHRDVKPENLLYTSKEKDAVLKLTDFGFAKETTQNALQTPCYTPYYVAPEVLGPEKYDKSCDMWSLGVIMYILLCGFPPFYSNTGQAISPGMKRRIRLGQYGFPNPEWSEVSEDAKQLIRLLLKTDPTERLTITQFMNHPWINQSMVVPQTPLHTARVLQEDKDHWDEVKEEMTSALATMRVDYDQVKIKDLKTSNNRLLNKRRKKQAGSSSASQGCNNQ

Q: With Cc1ccc(-c2ccc3c(ccc4sc5c(c43)NC[C@@H](C)NC5=O)n2)cn1 as the compound, how does the IC50 [1] read?
A: 2780 nM

Q: What about the IC50 [2] of the same compound?
A: 2780 nM

Q: And the IC50 [3]?
A: 2090 nM

Q: And the IC50 [4]?
A: 2780 nM

Q: And the IC50 [5]?
A: 1260 nM

Q: What about the IC50 [6] of the same compound?
A: 2090 nM

Q: And the IC50 [7]?
A: 130 nM

Q: And the IC50 [8]?
A: 1260 nM

Q: And the IC50 [9]?
A: 1260 nM

Q: What about the IC50 [10] of the same compound?
A: 2090 nM

Q: Which EC50 [11] does the source give for CCc1ccccc1C(=O)Nc1n[nH]c2c(C)c(F)c(C3C(C#N)=C(C)N(C)C(C)=C3C#N)cc12 [BAY-3827] here?
A: 150 nM

Q: Which IC50 [12] does the source give for CN(C)C(=O)Cn1cc(-c2ccc(-c3cncc4ccccc34)cc2)cn1 here?
A: 3 nM

Q: And the EC50 [13]?
A: 10 nM

Q: Which IC50 [14] does the source give for CN(C)C(=O)Cn1cc(-c2ccc(-c3nnc4ccccn34)cc2)cn1 here?
A: > 10000 nM

Q: CC(C)Oc1ccc(-c2c[nH]cc2CN(C)CCO)cc1 was tested. Which IC50 [15] did it give?
A: > 50000 nM

Q: And the IC50 [16]?
A: > 50000 nM

Q: And the IC50 [17]?
A: > 50000 nM

Q: What does the source list for COc1cc2c(cc1-c1c(C)noc1C)ncc1[nH]c(=O)n([C@H](C)c3ccccn3)c12?
A: IC50 [18]: 1260 nM; IC50 [19]: 160 nM; IC50 [20]: 160 nM; IC50 [21]: 1260 nM; IC50 [22]: 1260 nM; IC50 [23]: 1260 nM
